Source: patent publication US6776996B2, “Pesticidal matrices” (priority 1997, dated 2004)

System: H. virescens
Experiment: Field evaluation against tobacco budworms on tobacco in North Carolina
Assay type: in vivo
Details: 0.75 lb of ai/acre
Method: A field evaluation is conducted on tobacco grown near Clayton, N.C. A wettable powder composition of this invention (composition 46) at 2×10^11, 5×10^11, and 8×10^11 bodies/acre, Bacillus thuringiensis (DIPEL® 2X, Abbott Laboratories) at 1.0 lb wettable powder (WP)/acre, and acephate (ORTHENE® 75SP, available from Valent USA, Walnut Creek, Calif.) at 0.75 lb active ingredient (ai)/acre are compared for efficacy against H. virescens. Biological materials are suspended in water containing an insect gustatory stimulant (PHEAST® available from […], Fresno, Calif.); aqueous dilutions of acephate contained no PHEAST®. Treatments and untreated check are replicated four times (small plots) in a randomized complete block design. By using fine-hair brushes, 1- to 2-day old laboratory-reared H. virescens are placed on the underside of leaves in each plot. Natural infestation of H. virescens also occurred at the test site. Treatments are applied to tobacco about 2 hours before each artificial larval infestation on days 1 and 8. Treatments are applied with a tractor-mounted, CO2-pressurized boom sprayer which is calibrated to deliver 25 gallons/acre through a single D2-33 nozzle centered over each tobacco row. Boom pressure during application is 60 lb/in^2.
At 2 and 5 days after first application and 5 and 9 days after second application, live H. virescens are counted on 20 plants in each plot. Additionally, visual estimate of leaf damage caused by larval feeding is made 14 days after the second application using the rating scale shown below.

In the case of `COP(=O)(NC(C)=O)SC` (centres unmarked) [Acephate, acephate], the “Mean Number of Live Larvae per 20 Plants” value (Day of Test 3) is reported as 6.0, the “Mean Number of Live Larvae per 20 Plants” value (Day of Test 8) is reported as 5.8 and the “Mean Number of Live Larvae per 20 Plants” value (Day of Test 13) is reported as 1.2. For the same compound, the “Mean Number of Live Larvae per 20 Plants” value (Day of Test 17) was 0.8 and the “Mean Plant Injury on Day 22 of Test” value (rating scale 0 (No Damage) to 4 (Severe Damage)) was 0.2.
